SMILES strings stand for the structures.

The conditions of the data set: 1% by mass in distilled water at 25° C. As for the experimental part: Potassium sulfate, dipotassium hydrogen phosphate, and potassium bicarbonate components were each dissolved in distilled water at 25° C. to be a concentration of 1% by mass and stirred sufficiently.
In turn, `O=S(=O)([O-])[O-].[K+].[K+]` [Potassium sulfate] had a pH of 3.3.

`O=C([O-])O.[K+]` [Potassium bicarbonate]: the pH stood at 8.3.

For the molecule `O=P([O-])([O-])O.[K+].[K+]` [Dipotassium hydrogen phosphate], the pH was found to be 9.0.

Values taken from patent US10986834B2, “Peptide-containing composition and stabilizer, stabilizing method, and storage method for peptide” (KANEKA CORPORATION, priority 2016, dated 2021).
